According to patent publication US6518243B1, “Desleucyl glycopeptide antibiotics and methods of making same” (Trustees of Princeton University, priority 1999, dated 2003):

Assays:
E. faecalis (CL 4877) = experiment: Zone of inhibition screen, 96 well agar array format; assay type: cell-based; set-up: scale not given here
Method in brief: (§1)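 Each compound was tested for antibacterial activity against a shared bacterial panel, with screening carried out on agar in a 96-well array.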

S. aureus (ATCC 29213) = experiment: as above; assay type: cell-based; set-up: scale not given here
Method in brief: as §1

E. faecium CL 4931 = experiment: MIC determination in BHI media, OD600; assay type: cell-based; conditions: BHI + 0.1% casamino acids, 18 hours at 37° C., ≧90% OD600 inhibition
Method: (§2) Logarithmically growing cells were diluted to approximately 5×10^5 CFU/ml and subjected to test compounds solubilized and serially diluted in DMSO. […] After 18 hours at 37° C., the OD600 was determined by reading the ninety-six well microtiter plates on a microplate reader. For a given concentration, an MIC determination was made if: […]

S aureus ATCC 29213 = experiment: MIC determination in BHI media, OD600; assay type: cell-based; conditions: BHI + 0.1% casamino acids, 18 hours at 37° C., ≧90% OD600 inhibition
Method: as §2

S. Aureus ATCC 33591 = experiment: MIC determination in BHI media, OD600; assay type: cell-based; conditions: BHI + 0.1% casamino acids, 18 hours at 37° C., ≧90% OD600 inhibition
Method: as §2

E. faceium (ATCC 49624) = experiment: Zone of inhibition screen, 96 well agar array format;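 note: score 3 means fourfold and score 4 sixteenfold the reference zone size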; assay type: cell-based, E. faecium; conditions: zone of inhibition relative to 1 mg/ml stock solution of p-chlorobiphenylvancomycin
Method: The antibacterial activity of each of the compounds against the bacterial strains E. faceium (ATCC 49624), S. epidermidis (ATCC 12228), S. aureus (ATCC 29213), E. faecalis (CL 4877) and E. faecalis (ATCC 292121) was tested. Each of the compounds was screened in a 96 will agar array format.

E. faecium ATCC 49624 = experiment: MIC determination in BHI media, OD600; assay type: cell-based; conditions: BHI + 0.1% casamino acids, 18 hours at 37° C., ≧90% OD600 inhibition
Method: as §2

E. faecalis ATCC 29212 = experiment: MIC determination in BHI media, OD600; assay type: cell-based; conditions: BHI + 0.1% casamino acids, 18 hours at 37° C., ≧90% OD600 inhibition
Method: as §2

[1] = tested on: S. epidermidis (ATCC 12228); experiment: Zone of inhibition screen, 96 well agar array format; assay type: cell-based; set-up: scale not given here
Method in brief: as §1

[2] = zone of inhibition relative to 1 mg/ml stock solution of p-chlorobiphenylvancomycin
[3] = zone of inhibition relative to 1 mg/ml p-chlorobiphenylvancomycin

Row | Compound | MIC E. faecium CL 4931 (E. faecium CL 4931) [µg/mL] | MIC S. aureus ATCC 29213 (S aureus ATCC 29213) [µg/mL] | MIC S. aureus ATCC 33591 (S. Aureus ATCC 33591) [µg/mL] | MIC E. faecium ATCC 49624 (E. faecium ATCC 49624) [µg/mL] | MIC E. faecalis ATCC 29212 (E. faecalis ATCC 29212) [µg/mL] | zone score, E. faecalis CL 4877 (E. faecalis (CL 4877); [2]) | zone score, S. aureus ATCC 29213 (S. aureus (ATCC 29213); [2]) | zone score, E. faecium ATCC 49624 (E. faceium (ATCC 49624)) | zone score, S. epidermidis ATCC 12228 [1, 2] | zone score, S. epidermidis ATCC 12228 [1, 3] | zone score, E. faecalis CL 4877 (E. faecalis (CL 4877); [3]) | zone score, S. aureus ATCC 29213 (S. aureus (ATCC 29213); [3])
1 | CC1OC(OC2C(Oc3c4cc5cc3Oc3ccc(cc3Cl)C(O)C3NC(=O)C(NC(=O)C5NC(=O)C(CC(N)=O)NC(=O)C(NC(=O)C(CCC(N)=O)NC(=O)OC(C)(C)C)C(O)c5ccc(c(Cl)c5)O4)c4ccc(O)c(c4)-c4c(O)cc(O)cc4C(C(=O)O)NC3=O)OC(CO)C(O)C2O)CC(C)(NCc2ccc(-c3ccc(Cl)cc3)cc2)C1O (centres unmarked) [Compound 136] | > 25 | 0.78 | 0.78 | 0.78 | – | – | – | – | 2 | – | – | –
2 | CC1OC(OC2C(Oc3c4cc5cc3Oc3ccc(cc3Cl)C(O)C3NC(=O)C(NC(=O)C5NC(=O)C(CC(N)=O)NC(=O)C(NC(=O)C(N)CCC(N)=O)C(O)c5ccc(c(Cl)c5)O4)c4ccc(O)c(c4)-c4c(O)cc(O)cc4C(C(=O)O)NC3=O)OC(CO)C(O)C2O)CC(C)(NCc2ccc(-c3ccc(Cl)cc3)cc2)C1O (centres unmarked) [Compound 91] | 25 | 0.78 | 0.78 | 0.78 | – | – | – | – | 2 | – | – | –
3 | CCOCC(NC)C(=O)NC1C(=O)NC(CC(N)=O)C(=O)NC2C(=O)NC3C(=O)NC(C(=O)NC(C(=O)O)c4cc(O)cc(O)c4-c4cc3ccc4O)C(O)c3ccc(c(Cl)c3)Oc3cc2cc(c3OC2OC(CO)C(O)C(O)C2OC2CC(C)(NCc3ccc(-c4ccc(Cl)cc4)cc3)C(O)C(C)O2)Oc2ccc(cc2Cl)C1O (centres unmarked) [Compound 527] | 25 | 0.39 | 0.39 | 0.25 | – | – | – | – | – | – | – | –
4 | C[C@H]1O[C@H](O[C@H]2[C@H](Oc3c4cc5cc3Oc3ccc(cc3Cl)[C@@H](O)[C@@H](NC(=O)CN3CCNCC3)C(=O)N[C@@H](CC(N)=O)C(=O)N[C@H]5C(=O)N[C@H]3C(=O)N[C@H](C(=O)N[C@@H](C(=O)O)c5cc(O)cc(O)c5-c5cc3ccc5O)[C@H](O)c3ccc(c(Cl)c3)O4)O[C@H](CO)[C@@H](O)[C@@H]2O)C[C@@](C)(NCc2ccc(-c3ccc(Cl)cc3)cc2)[C@H]1O [Compound 24] | 25 | 0.78 | 0.78 | – | – | – | – | 2 | 2 | – | – | –
5 | CC1OC(OC2C(Oc3c4cc5cc3Oc3ccc(cc3Cl)C(O)C3NC(=O)C(NC(=O)C5NC(=O)C(CC(N)=O)NC(=O)C(NC(=O)C(N)CSSC(C)(C)C)C(O)c5ccc(c(Cl)c5)O4)c4ccc(O)c(c4)-c4c(O)cc(O)cc4C(C(=O)O)NC3=O)OC(CO)C(O)C2O)CC(C)(NCc2ccc(-c3ccc(Cl)cc3)cc2)C1O (centres unmarked) [Compound 345] | 25 | 0.78 | 0.78 | 0.39 | – | – | – | – | – | – | – | –
6 | CC1OC(OC2C(Oc3c4cc5cc3Oc3ccc(cc3Cl)C(O)C3NC(=O)C(NC(=O)C5NC(=O)C(CC(N)=O)NC(=O)C(NC(=O)CN5CCNCC5)C(O)c5ccc(c(Cl)c5)O4)c4ccc(O)c(c4)-c4c(O)cc(O)cc4C(C(=O)O)NC3=O)OC(CO)C(O)C2O)CC(C)(NCc2ccc(-c3ccc(Cl)cc3)cc2)C1O (centres unmarked) [Compound 34] | 25 | 0.78 | – | 0.78 | – | – | – | 2 | – | – | – | –

Continued, in another order:

Row | MIC E. faecium CL 4931 (E. faecium CL 4931) [µg/mL] | MIC S. aureus ATCC 29213 (S aureus ATCC 29213) [µg/mL] | MIC S. aureus ATCC 33591 (S. Aureus ATCC 33591) [µg/mL] | MIC E. faecium ATCC 49624 (E. faecium ATCC 49624) [µg/mL] | MIC E. faecalis ATCC 29212 (E. faecalis ATCC 29212) [µg/mL] | Compound | zone score, E. faecalis CL 4877 (E. faecalis (CL 4877); [2]) | zone score, S. aureus ATCC 29213 (S. aureus (ATCC 29213); [2]) | zone score, E. faecium ATCC 49624 (E. faceium (ATCC 49624)) | zone score, S. epidermidis ATCC 12228 [1, 2] | zone score, S. epidermidis ATCC 12228 [1, 3] | zone score, E. faecalis CL 4877 (E. faecalis (CL 4877); [3]) | zone score, S. aureus ATCC 29213 (S. aureus (ATCC 29213); [3])
7 | > 25 | 0.78 | 0.78 | – | – | C[C@H]1O[C@H](O[C@H]2[C@H](Oc3c4cc5cc3Oc3ccc(cc3Cl)[C@@H](O)[C@@H](NC(=O)[C@@H](N)CCC(=O)OCc3ccccc3)C(=O)N[C@@H](CC(N)=O)C(=O)N[C@H]5C(=O)N[C@H]3C(=O)N[C@H](C(=O)N[C@@H](C(=O)O)c5cc(O)cc(O)c5-c5cc3ccc5O)[C@H](O)c3ccc(c(Cl)c3)O4)O[C@H](CO)[C@@H](O)[C@@H]2O)C[C@@](C)(NCc2ccc(-c3ccc(Cl)cc3)cc2)[C@H]1O [Compound 26] | 2 | 2 | – | – | – | – | –
8 | 25 | 0.78 | 0.78 | 0.39 | – | CC1OC(OC2C(Oc3c4cc5cc3Oc3ccc(cc3Cl)C(O)C3NC(=O)C(NC(=O)C5NC(=O)C(CC(N)=O)NC(=O)C(NC(=O)C(N)CCS(C)(=O)=O)C(O)c5ccc(c(Cl)c5)O4)c4ccc(O)c(c4)-c4c(O)cc(O)cc4C(C(=O)O)NC3=O)OC(CO)C(O)C2O)CC(C)(NCc2ccc(-c3ccc(Cl)cc3)cc2)C1O (centres unmarked) [Compound 82] | – | – | 2 | – | – | – | –
9 | – | 0.12 | 0.12 | 0.062 | 0.25 | CCCC(N)C(=O)NC1C(=O)NC(CC(N)=O)C(=O)NC2C(=O)NC3C(=O)NC(C(=O)NC(C(=O)O)c4cc(O)cc(O)c4-c4cc3ccc4O)C(O)c3ccc(c(Cl)c3)Oc3cc2cc(c3OC2OC(CO)C(O)C(O)C2OC2CC(C)(NCc3ccc(-c4ccc(Cl)cc4)cc3)C(O)C(C)O2)Oc2ccc(cc2Cl)C1O (centres unmarked) [Compound 337] | – | – | – | – | – | – | –
10 | > 25 | – | – | 0.78 | – | CC(O)C(N)C(=O)NC1C(=O)NC(CC(N)=O)C(=O)NC2C(=O)NC3C(=O)NC(C(=O)NC(C(=O)O)c4cc(O)cc(O)c4-c4cc3ccc4O)C(O)c3ccc(c(Cl)c3)Oc3cc2cc(c3OC2OC(CO)C(O)C(O)C2OC2CC(C)(NCc3ccc(-c4ccc(Cl)cc4)cc3)C(O)C(C)O2)Oc2ccc(cc2Cl)C1O (centres unmarked) [Compound 89] | 2 | – | 2 | 2 | – | – | –
11 | – | 0.25 | 0.25 | 0.12 | 0.25 | C[C@H]1O[C@H](O[C@H]2[C@H](Oc3c4cc5cc3Oc3ccc(cc3Cl)[C@@H](O)[C@@H](NC(=O)[C@H](N)Cc3ccccc3)C(=O)N[C@@H](CC(N)=O)C(=O)N[C@H]5C(=O)N[C@H]3C(=O)N[C@H](C(=O)N[C@@H](C(=O)O)c5cc(O)cc(O)c5-c5cc3ccc5O)[C@H](O)c3ccc(c(Cl)c3)O4)O[C@H](CO)[C@@H](O)[C@@H]2O)C[C@@](C)(NCc2ccc(-c3ccc(Cl)cc3)cc2)[C@H]1O [Compound 16] | – | – | – | – | – | – | –
12 | 25 | 0.78 | 0.78 | 0.39 | – | CC1OC(OC2C(Oc3c4cc5cc3Oc3ccc(cc3Cl)C(O)C3NC(=O)C(NC(=O)C5NC(=O)C(CC(N)=O)NC(=O)C(NC(=O)C(N)COCc5ccccc5)C(O)c5ccc(c(Cl)c5)O4)c4ccc(O)c(c4)-c4c(O)cc(O)cc4C(C(=O)O)NC3=O)OC(CO)C(O)C2O)CC(C)(NCc2ccc(-c3ccc(Cl)cc3)cc2)C1O (centres unmarked) [Compound 342] | – | – | – | – | – | – | –
13 | 25 | 0.78 | 0.78 | 0.39 | – | C[C@H]1O[C@H](O[C@H]2[C@H](Oc3c4cc5cc3Oc3ccc(cc3Cl)[C@@H](O)[C@@H](NC(=O)c3cccc(N)c3)C(=O)N[C@@H](CC(N)=O)C(=O)N[C@H]5C(=O)N[C@H]3C(=O)N[C@H](C(=O)N[C@@H](C(=O)O)c5cc(O)cc(O)c5-c5cc3ccc5O)[C@H](O)c3ccc(c(Cl)c3)O4)O[C@H](CO)[C@@H](O)[C@@H]2O)C[C@@](C)(NCc2ccc(-c3ccc(Cl)cc3)cc2)[C@H]1O [Compound 257] | – | – | – | – | 2 | 2 | 2
14 | 25 | 0.78 | 0.78 | 0.78 | – | CC1OC(OC2C(Oc3c4cc5cc3Oc3ccc(cc3Cl)C(O)C3NC(=O)C(NC(=O)C5NC(=O)C(CC(N)=O)NC(=O)C(NC(=O)C(N)CO)C(O)c5ccc(c(Cl)c5)O4)c4ccc(O)c(c4)-c4c(O)cc(O)cc4C(C(=O)O)NC3=O)OC(CO)C(O)C2O)CC(C)(NCc2ccc(-c3ccc(Cl)cc3)cc2)C1O (centres unmarked) [Compound 63] | 2 | 2 | – | – | – | – | –
15 | 25 | 0.39 | 0.39 | 0.25 | – | CCOCC(N)C(=O)NC1C(=O)NC(CC(N)=O)C(=O)NC2C(=O)NC3C(=O)NC(C(=O)NC(C(=O)O)c4cc(O)cc(O)c4-c4cc3ccc4O)C(O)c3ccc(c(Cl)c3)Oc3cc2cc(c3OC2OC(CO)C(O)C(O)C2OC2CC(C)(NCc3ccc(-c4ccc(Cl)cc4)cc3)C(O)C(C)O2)Oc2ccc(cc2Cl)C1O (centres unmarked) [Compound 524] | – | – | – | – | – | – | –
